{
  "source": "patent US9278942B2",
  "about": "“Non-steroidal compounds as androgen receptor modulators” (FLX Discoveries Oy, priority 2011, dated 2016)",
  "origin": "cited, not measured here",
  "molecular_target": "T1, LNCaP (containing an AR mutation) (Homo sapiens, UniProt P10275, T878A)",
  "T1 sequence (P10275 1-920 T878A)": "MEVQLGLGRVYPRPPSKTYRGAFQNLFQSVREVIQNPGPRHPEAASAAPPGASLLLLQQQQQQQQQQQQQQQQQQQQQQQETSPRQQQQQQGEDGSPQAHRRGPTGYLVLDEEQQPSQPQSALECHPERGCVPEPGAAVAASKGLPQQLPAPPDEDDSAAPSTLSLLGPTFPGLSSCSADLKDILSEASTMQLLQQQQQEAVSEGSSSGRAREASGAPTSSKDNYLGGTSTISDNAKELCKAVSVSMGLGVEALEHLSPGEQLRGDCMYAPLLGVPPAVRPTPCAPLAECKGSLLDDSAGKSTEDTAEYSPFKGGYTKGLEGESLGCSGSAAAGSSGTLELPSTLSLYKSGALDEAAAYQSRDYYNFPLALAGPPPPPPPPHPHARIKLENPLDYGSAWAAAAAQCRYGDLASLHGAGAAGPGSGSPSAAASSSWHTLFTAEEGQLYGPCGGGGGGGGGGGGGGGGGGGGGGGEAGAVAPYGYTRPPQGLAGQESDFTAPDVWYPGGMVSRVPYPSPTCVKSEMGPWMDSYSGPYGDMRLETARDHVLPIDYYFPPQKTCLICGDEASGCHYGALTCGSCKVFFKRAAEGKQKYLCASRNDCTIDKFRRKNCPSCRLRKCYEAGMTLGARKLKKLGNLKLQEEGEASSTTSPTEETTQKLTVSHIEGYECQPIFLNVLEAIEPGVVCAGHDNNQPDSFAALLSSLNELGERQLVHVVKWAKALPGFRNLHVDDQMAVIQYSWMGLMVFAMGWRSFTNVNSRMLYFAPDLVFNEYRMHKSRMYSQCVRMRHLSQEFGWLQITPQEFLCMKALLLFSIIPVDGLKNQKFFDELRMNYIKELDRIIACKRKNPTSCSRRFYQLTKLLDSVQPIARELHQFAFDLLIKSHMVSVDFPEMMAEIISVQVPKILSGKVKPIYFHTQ",
  "settings": "LNCaP prostate cancer cells; cited from earlier work",
  "data": [
    {"smiles": "CC(C)(O)C(=O)Nc1ccc([N+](=O)[O-])c(C(F)(F)F)c1", "note": "[Hydroxyflutamide, reference compound]", "values": [
      {"measurement": "Activity of hydroxyflutamide at the AR mutation of LNCaP cells", "value": "agonist"}
    ]}
  ]
}
